This note sets out measurements from patent publication US11492335B2, “Aryl or heteroaryl triazolone derivatives or salts thereof, or pharmaceutical compositions comprising the same” (YUHAN CORPORATION, priority 2018, dated 2022).

What all share (type): biochemical
Assay [1] deals with T1, recombinant human VAP-1 (Homo sapiens, UniProt Q16853).
T1 construct: purchased R&D systems
T1 sequence (Q16853 1-763): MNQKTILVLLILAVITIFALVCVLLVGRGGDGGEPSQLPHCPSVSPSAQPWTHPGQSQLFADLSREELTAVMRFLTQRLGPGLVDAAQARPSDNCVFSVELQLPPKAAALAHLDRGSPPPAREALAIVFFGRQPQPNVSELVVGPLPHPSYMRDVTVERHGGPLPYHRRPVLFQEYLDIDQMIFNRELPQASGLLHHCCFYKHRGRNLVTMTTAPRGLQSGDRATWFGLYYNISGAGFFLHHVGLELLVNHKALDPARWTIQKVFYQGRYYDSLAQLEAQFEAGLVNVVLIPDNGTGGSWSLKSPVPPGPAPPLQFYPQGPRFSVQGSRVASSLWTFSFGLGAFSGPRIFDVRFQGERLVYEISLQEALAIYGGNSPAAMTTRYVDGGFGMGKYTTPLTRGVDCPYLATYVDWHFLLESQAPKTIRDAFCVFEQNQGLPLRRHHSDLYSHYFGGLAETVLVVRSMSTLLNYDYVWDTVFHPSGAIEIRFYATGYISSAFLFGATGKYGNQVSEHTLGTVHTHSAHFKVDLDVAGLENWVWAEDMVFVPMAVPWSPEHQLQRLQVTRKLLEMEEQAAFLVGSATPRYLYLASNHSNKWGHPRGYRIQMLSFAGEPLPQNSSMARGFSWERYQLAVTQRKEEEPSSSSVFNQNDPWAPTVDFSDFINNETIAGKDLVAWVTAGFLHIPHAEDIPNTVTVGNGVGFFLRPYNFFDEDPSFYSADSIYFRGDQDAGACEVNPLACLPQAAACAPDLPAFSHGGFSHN
In words: Activity on recombinant human VAP-1, Amplex Red HRP-coupled hydrogen peroxide assay, benzylamine substrate. As to conditions: recombinant human VAP-1, benzylamine substrate, read-out: Inhibitory Activity (IC50, nM) human VAP-1. The gist of the method:
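Fluorescence of resorufin formed from H2O2 (ex 544 nm, em 590 nm) was tracked for 1-2 h after adding 1 mM benzylamine, 200 uM Amplex Red and 1 U/mL HRP to enzyme pretreated with compound for 30 min at 37 °C. IC50 values derive from four-variable logistic fits.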

Assay [2] has as its target T2, recombinant human MAO-B (monoamine oxidase-B) (Homo sapiens, UniProt P27338).
T2 construct: purchased Sigma-Aldrich
T2 sequence (P27338 1-520): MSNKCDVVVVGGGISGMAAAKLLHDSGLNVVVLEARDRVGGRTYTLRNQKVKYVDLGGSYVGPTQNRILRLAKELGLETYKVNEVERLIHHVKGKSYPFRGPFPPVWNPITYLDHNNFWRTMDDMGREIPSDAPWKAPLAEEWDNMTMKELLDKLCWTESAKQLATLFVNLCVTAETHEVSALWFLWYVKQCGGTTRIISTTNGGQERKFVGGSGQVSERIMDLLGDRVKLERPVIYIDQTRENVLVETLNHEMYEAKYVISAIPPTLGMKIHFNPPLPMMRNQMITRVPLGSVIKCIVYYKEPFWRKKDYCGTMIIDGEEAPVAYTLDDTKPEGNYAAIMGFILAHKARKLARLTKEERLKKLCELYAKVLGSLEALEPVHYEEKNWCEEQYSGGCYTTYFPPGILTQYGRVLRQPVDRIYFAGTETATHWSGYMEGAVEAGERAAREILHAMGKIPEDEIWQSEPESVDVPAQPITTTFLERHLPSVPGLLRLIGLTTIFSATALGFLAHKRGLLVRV
In words: Activity on recombinant human MAO-B, Amplex Red method, 1 mM benzylamine substrate. Conditions: read-out: Inhibitory Activity (IC50, nM) MAO-B. The gist of the method: (§1)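 Fluorescence (544/590 nm) of resorufin formed from Amplex Red by HRP and enzyme-generated H2O2 was followed over 1-2 h. Substrates were 0.5 mM tyramine for MAO-A and 1 mM benzylamine for MAO-B; compounds were preincubated with enzyme for 30 min at 37° C. IC50 came from four-parameter logistic fitting of signal-rate inhibition.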

Assay [3] addresses T3, recombinant human DAO (diamine oxidase) (Homo sapiens, UniProt P19801).
T3 construct: purchased R&D systems
T3 sequence (P19801 20-751): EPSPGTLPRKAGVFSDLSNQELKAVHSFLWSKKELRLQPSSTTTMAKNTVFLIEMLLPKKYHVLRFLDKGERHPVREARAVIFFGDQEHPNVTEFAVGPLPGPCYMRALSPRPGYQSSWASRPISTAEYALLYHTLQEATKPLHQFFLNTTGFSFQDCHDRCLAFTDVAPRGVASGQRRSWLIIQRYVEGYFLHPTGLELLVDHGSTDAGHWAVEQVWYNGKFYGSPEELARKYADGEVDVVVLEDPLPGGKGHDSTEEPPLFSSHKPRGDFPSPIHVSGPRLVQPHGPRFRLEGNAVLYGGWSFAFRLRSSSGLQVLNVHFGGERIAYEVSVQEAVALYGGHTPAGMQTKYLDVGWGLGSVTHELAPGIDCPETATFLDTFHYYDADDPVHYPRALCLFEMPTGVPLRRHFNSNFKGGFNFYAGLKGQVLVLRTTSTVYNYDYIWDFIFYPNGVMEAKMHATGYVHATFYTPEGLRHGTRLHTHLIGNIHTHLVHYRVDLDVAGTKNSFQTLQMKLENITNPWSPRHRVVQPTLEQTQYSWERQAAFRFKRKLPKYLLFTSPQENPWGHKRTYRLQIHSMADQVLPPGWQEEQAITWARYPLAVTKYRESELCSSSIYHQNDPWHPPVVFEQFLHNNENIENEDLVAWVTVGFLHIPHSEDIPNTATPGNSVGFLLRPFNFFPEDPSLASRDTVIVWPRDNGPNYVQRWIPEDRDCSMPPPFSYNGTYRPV
The assay is described as follows: Activity on recombinant human DAO, Amplex Red method, 1 mM putrescine substrate. Conditions: recombinant human DAO, read-out: Inhibitory Activity (IC50, nM) DAO. The gist of the method: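 Inhibition of recombinant human DAO (diamine oxidase, R&D systems) was assessed with the Amplex Red Hydrogen Peroxide Assay Kit. Hydrogen peroxide produced from 1 mM putrescine was detected through an HRP-coupled reaction that converts Amplex Red into fluorescent resorufin, read at 544 nm excitation and 590 nm emission. IC50 values came from four-parameter logistic fits in GraphPad Prism.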

Assay [4] has as its target T4, recombinant human MAO-A (monoamine oxidase-A) (Homo sapiens, UniProt P21397).
T4 construct: purchased Sigma-Aldrich
T4 sequence (P21397 1-527): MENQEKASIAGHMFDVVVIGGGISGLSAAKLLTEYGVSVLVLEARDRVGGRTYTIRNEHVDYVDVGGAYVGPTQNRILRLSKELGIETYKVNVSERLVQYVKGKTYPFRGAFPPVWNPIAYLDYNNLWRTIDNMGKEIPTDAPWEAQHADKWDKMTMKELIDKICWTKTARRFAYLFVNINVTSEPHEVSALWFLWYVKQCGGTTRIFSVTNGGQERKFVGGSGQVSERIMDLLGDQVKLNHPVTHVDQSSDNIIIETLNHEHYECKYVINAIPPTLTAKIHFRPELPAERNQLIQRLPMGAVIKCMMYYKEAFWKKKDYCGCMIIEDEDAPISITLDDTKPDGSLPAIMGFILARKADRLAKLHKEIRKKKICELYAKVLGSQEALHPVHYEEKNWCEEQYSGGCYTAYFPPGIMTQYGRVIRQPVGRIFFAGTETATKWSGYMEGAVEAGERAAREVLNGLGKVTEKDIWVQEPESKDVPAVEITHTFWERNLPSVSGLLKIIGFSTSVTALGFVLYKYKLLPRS
The assay is described as follows: Activity on recombinant human MAO-A, Amplex Red method, 0.5 mM tyramine substrate. Conditions: read-out: Inhibitory Activity (IC50, nM) MAO-A. The gist of the method: as §1

Setting [5] is: 1 mM putrescine, * = between 10 and 100 nM, ** = between 300 and 1000 nM.

Each structure is given as a SMILES string. Structures can show the parent of a compound that is named as a salt. Where two headings read alike, the source gives them in different places. Bounds are passed on as bounds.

Turning to `NC/C(=C\F)Cn1ncn(-c2ccnc(-c3ccc4c(c3)OCO4)c2)c1=O` [Example 209, 2-[(2E)-2-(aminomethyl)-3-fluoroprop-2-en-1-yl]-4-[2-(1,3-benzodioxol-5-yl)pyridin-4-yl]-2,4-dihydro-3H-1,2,4-triazol-3-one hydrochloride], the half-maximal inhibitory concentration (IC50) in assay [1] is 0.63 nM; in assay [2] (1 mM benzylamine substrate), 17 nM; in assay [3] (1 mM putrescine substrate) it was less than 10 nM; in assay [4] (0.5 mM tyramine substrate), more than 100000 nM.
The matching figures for `NC/C(=C\F)Cn1ncn(-c2cccc(C#Cc3cnc4c(c3)NC(=O)CO4)n2)c1=O` [Example 258, 7-[2-[6-[1-[(E)-2-(aminomethyl)-3-fluoro-allyl]-5-oxo-1,2,4-triazol-4-yl]-2-pyridyl]ethynyl]-1H-pyrido[2,3-b][1,4]oxazin-2-one]: 0.2 nM, 59000 nM, 1.3 nM and more than 100000 nM.
`COc1ccc(-c2cccc(-n3cnn(C/C(=C/F)CN)c3=O)c2)cn1` [Example 83, 2-[(2E)-2-(aminomethyl)-3-fluoroprop-2-en-1-yl]-4-[3-(6-methoxypyridin-3-yl)phenyl]-2,4-dihydro-3H-1,2,4-triazol-3-one hydrochloride]: the IC50 is 0.88 nM in assay [1] (30 min preincubation at 37° C.), 2460 nM in assay [2] (1 mM benzylamine), less than 30 nM in assay [3] (setting [5]) and more than 100000 nM in assay [4] (0.5 mM tyramine).
As for `Cc1cc(-c2cccc(-n3cnn(C/C(=C/F)CN)c3=O)n2)cnc1F` [Example 190, 2-[(2E)-2-(aminomethyl)-3-fluoroprop-2-en-1-yl]-4-(6′-fluoro-5′-methyl-2,3′-bipyridin-6-yl)-2,4-dihydro-3H-1,2,4-triazol-3-one hydrochloride], the IC50 in assay [1] is 0.6 nM; in assay [2] (1 mM benzylamine substrate), 190 nM; in assay [3] (1 mM putrescine substrate), 5 nM; in assay [4] (0.5 mM tyramine substrate) it was more than 100000 nM.
For the compound `NC/C(=C\F)Cn1ncn(-c2cccc(-c3ccc4sc(N)nc4c3)n2)c1=O` [Example 196, 4-[6-(2-amino-1,3-benzothiazol-5-yl)pyridin-2-yl]-2-[(2E)-2-(aminomethyl)-3-fluoroprop-2-en-1-yl]-2,4-dihydro-3H-1,2,4-triazol-3-one], the IC50 is 1.1 nM in assay [1], more than 10000 nM in assay [2] (1 mM benzylamine substrate), 11 nM in assay [3] (1 mM putrescine substrate) and more than 100000 nM in assay [4] (0.5 mM tyramine substrate).
For the compound `NC/C(=C\F)Cn1ncn(-c2cccc(-c3ccc(-c4ncon4)cc3)c2)c1=O` [Example 61, 2-[(2E)-2-(aminomethyl)-3-fluoroprop-2-en-1-yl]-4-[4′-(1,2,4-oxadiazol-3-yl)biphenyl-3-yl]-2,4-dihydro-3H-1,2,4-triazol-3-one], the IC50 in assay [1] (30 min preincubation at 37° C.) is 0.65 nM; in assay [2] (1 mM benzylamine), 998 nM; in assay [3] (setting [5]), less than 100 nM; in assay [4] (0.5 mM tyramine) it was 62000 nM.
For `NC/C(=C/F)Cn1ncn(-c2ccc(Br)nc2)c1=O` [Example 24, 2-[(2Z)-2-(aminomethyl)-3-fluoroprop-2-en-1-yl]-4-(6-bromopyridin-3-yl)-2,4-dihydro-3H-1,2,4-triazol-3-one], in that order: 4.6 nM, 17 nM, 26 nM and 6600 nM.
As for `NC/C(=C\F)Cn1ncn(-c2cnc(-c3ccc4nonc4c3)cn2)c1=O` [Example 222, 2-[(2E)-2-(aminomethyl)-3-fluoroprop-2-en-1-yl]-4-[5-(2,1,3-benzooxadiazol-5-yl)pyrazin-2-yl]-2,4-dihydro-3H-1,2,4-triazol-3-one], the IC50 was 0.94 nM in assay [1], 22 nM in assay [2] (1 mM benzylamine substrate), less than 100 nM in assay [3] (1 mM putrescine substrate) and 770 nM in assay [4] (0.5 mM tyramine substrate).
On to `CC(C)c1nc(-c2ccc(-c3cccc(-n4cnn(C/C(=C/F)CN)c4=O)c3)cc2)no1` [Example 64, 2-[(2E)-2-(aminomethyl)-3-fluoroprop-2-en-1-yl]-4-{4′-[5-(propan-2-yl)-1,2,4-oxadiazol-3-yl]biphenyl-3-yl}-2,4-dihydro-3H-1,2,4-triazol-3-one hydrochloride], for which the IC50 in assay [1] (30 min preincubation at 37° C.) was 3.2 nM; in assay [2] (1 mM benzylamine) it was more than 10000 nM; in assay [3] (setting [5]), less than 30 nM; in assay [4] (0.5 mM tyramine) it was 6030 nM.
For `CC(=O)Nc1cc(-c2cnc(-n3cnn(C/C(=C/F)CN)c3=O)cn2)ccn1` [Example 220, N-[4-(5-{1-[(2E)-2-(aminomethyl)-3-fluoroprop-2-en-1-yl]-5-oxo-1,5-dihydro-4H-1,2,4-triazol-4-yl}pyrazin-2-yl)pyridin-2-yl]acetamide], the IC50 in assay [1] is 1.8 nM; in assay [2] (1 mM benzylamine substrate), 396 nM; in assay [3] (1 mM putrescine substrate), less than 100 nM; in assay [4] (0.5 mM tyramine substrate), more than 100000 nM.
